# Patent US12357636B2 (Urovant Sciences GmbH, priority 2018, dated 2025)
# Columns and labels:
# [1] = system: patients with OAB; test: Phase 2b study: cardiovascular safety, orthostatic AEs, blood pressure and heart rate changes (Table 17); type: in vivo, human
# Text: None led to discontinuation. The overall incidence of orthostatic symptoms was low.
# Small differences in the percent of subjects exceeding categorical heart rate and blood pressure thresholds for vibegron were similar to those in the tolterodine arm.
# [2] = system: healthy subjects; test: multiple-dose Phase 1 study: maximum MA4 heart rate; type: in vivo, human; conditions: Day 14
# Experimental: More intensive assessments of heart rate and blood pressure were performed in healthy volunteers in several Phase 1 studies. […] Doses ranged from 25 to 400 mg once daily for 7 to 28 days depending on the cohort. Least squares mean and 90% confidence intervals of maximum change from baseline in moving average of heart rate over 4 hours postdose (MA4 HR) are presented in Table 18.
# [3] = system: healthy volunteers; test: thorough QT study: RR interval and blood pressure (Table 19); type: in vivo, human
# [4] = dose-Cmax and dose-AUC models, log-log regression and simulations for 75 mg; parameters: species or system human
# Experimental: In order to contextualize PK parameters of a 75 mg dose, dose-Cmax and dose-AUC models were created using data from Phase 1 studies.
# [5] = system: men and women with overactive bladder; test: Phase 3 study vibegron 75 mg: post-void residual urine volume (Tables 26-28); type: in vivo, human
# Text: The risk of acute urinary retention or morbidities related to an increase in Post-Void Residual (PVR) is a concern with antimuscarinic therapy that promotes smooth muscle relaxation by inhibiting acetylcholine-induced smooth muscle contraction. If, during contraction, the bladder cannot generate enough pressure to overcome the outlet resistance in the urethra, either because of poor detrusor contractility or profound obstruction (most commonly from BPH), acute urinary retention or incomplete emptying of the bladder may result.
# The volume of urine that remains in the bladder after voiding (PVR) is an objective measurement that may serve as a proxy for impaired ability to void.
# PVR were performed via ultrasound at the visits indicated in the Schedule of Activities.
# In addition, the data on the Post Void Residual Urine Volume (PVR) in all males and males with a medical history of BPH is shown in Tables 26 and 27, respectively.
# [6] = vibegron 100 mg, counts based on 3 consecutive post-baseline visits
# [7] = vibegron 100 mg, mean maximum from week 1 to 8
# [8] = Males with medical history of BPH
# [9] = all males, vibegron 75 mg or tolterodine ER 4 mg QD
structure (smiles),measurement,setting,value
"O=C(Nc1ccc(C[C@@H]2CC[C@H]([C@H](O)c3ccccc3)N2)cc1)[C@@H]1CCc2nccc(=O)n21 [Vibegron, (6S)—N-[4-[[(2S,5R)-5-[(R)-hydroxy(phenyl)methyl]pyrrolidin-2-yl]methyl]phenyl]-4-oxo-7,8-dihydro-6H-pyrrolo[1,2-a]pyrimidine-6-carboxamide]","SBP Change from Baseline, Mean (95% CI) (week 1)","[1]; vibegron 50 mg, week 1","−0.79 (−2.65, 1.08) mm Hg"
same,subjects with orthostatic related AEs,[1]; vibegron 100 mg group,1.1%
same,"DBP Change from Baseline [≥] 5 mm Hg, n/N (%)",[1]; [6],31/237 (13.1) %
same,"DBP Change from Baseline [≥] 10 mm Hg, n/N (%)",[1]; [6],8/237 (3.4) %
same,"DBP Change from Baseline ≥15 mm Hg, n/N (%)",[1]; [6],3/237 (1.3) %
same,"HR Change from Baseline [≥] 10 bpm, n/N (%)",[1]; [6],7/237 (3.0) %
same,"HR Change from Baseline ≥5 bpm, n/N (%)",[1]; [6],28/237 (11.8) %
same,"HR Change from Baseline ≥15 bpm, n/N (%)",[1]; [6],1/237 (0.4) %
same,"SBP Change from Baseline [≥] 5 mm Hg, n/N (%)",[1]; [6],28/237 (11.8) %
same,"SBP Change from Baseline [≥] 10 mm Hg, n/N (%)",[1]; [6],10/237 (4.2) %
same,"SBP Change from Baseline ≥15 mm Hg, n/N (%)",[1]; [6],3/237 (1.3) %
same,"DBP Change from Baseline, Mean (95% CI) Max",[1]; [7],"4.80 (3.88, 5.72) mm Hg"
same,"HR Change from Baseline, Mean (95% CI) Maximum",[1]; [7],"6.12 (5.10, 7.15) bpm"
same,"SBP Change from Baseline, Mean (95% CI) Maximum",[1]; [7],"6.51 (5.09, 7.93) mm Hg"
same,"DBP Change from Baseline, Mean (95% CI) (week 1)","[1]; vibegron 100 mg, week 1","−0.69 (−1.72, 0.34) mm Hg"
same,"HR Change from Baseline, Mean (95% CI) (week 1)","[1]; vibegron 100 mg, week 1","0.35 (−0.69, 1.38) bpm"
same,"SBP Change from Baseline, Mean (95% CI) (week 1)","[1]; vibegron 100 mg, week 1","−0.77 (−2.22, 0.68) mm Hg"
same,"Maximum MA4 HR change from baseline, LS mean",[2]; 25 mg QD,1.47 bpm
same,"Maximum MA4 HR, difference from placebo",[2]; 25 mg QD,−1.60 bpm
same,"Maximum MA4 HR change from baseline, LS mean",[2]; 50 mg QD,1.50 bpm
same,"Maximum MA4 HR, difference from placebo",[2]; 50 mg QD,−1.57 bpm
same,"Maximum MA4 HR change from baseline, LS mean",[2]; 100 mg QD,3.28 bpm
same,"Maximum MA4 HR change from baseline, LS mean",[2]; 150 mg QD,3.17 bpm
same,"Maximum MA4 HR, difference from placebo",[2]; 150 mg QD,0.10 bpm
same,"Maximum MA4 HR change from baseline, LS mean",[2]; 200 mg QD,5.67 bpm
same,"Maximum MA4 HR, difference from placebo",[2]; 200 mg QD,2.60 bpm
same,"Maximum MA4 HR change from baseline, LS mean",[2]; 300 mg QD,9.06 bpm
same,"Maximum MA4 HR, difference from placebo",[2]; 300 mg QD,5.98 bpm
same,"Maximum MA4 HR change from baseline, LS mean",[2]; 400 mg QD,10.33 bpm
same,"Maximum MA4 HR, difference from placebo",[2]; 400 mg QD,7.26 bpm
same,Maximum Mean Placebo Corrected Change from Baseline Diastolic BP (90% CI),[3]; single dose 200 mg,2.42 mmHg
same,Maximum Mean Placebo Corrected Change from Baseline RR interval (90% CI),[3]; single dose 200 mg,-84.36 ms
same,Maximum Mean Placebo Corrected Change from Baseline Systolic BP (90% CI),[3]; single dose 200 mg,2.20 mmHg
same,Maximum Mean Placebo Corrected Change from Baseline Diastolic BP (90% CI),[3]; single dose 400 mg,3.99 mmHg
same,Maximum Mean Placebo Corrected Change from Baseline RR interval (90% CI),[3]; single dose 400 mg,-162.45 ms
same,Maximum Mean Placebo Corrected Change from Baseline Systolic BP (90% CI),[3]; single dose 400 mg,3.97 mmHg
same,AUC of 75 mg lower than 200 mg single dose,[4],~2 fold
same,AUC of 75 mg lower than 400 mg single dose,[4],~6 fold
same,Cmax of 75 mg lower than 200 mg single dose,[4],approximately 3.3 fold
same,Cmax of 75 mg lower than 400 mg single dose,[4],~9.2 fold
same,increase in Cmax with increase in dose from 50 to 100 mg,[4],~4 fold
same,reduction in Cmax on decreasing dose from 100 mg to 75 mg,[4],~40%
same,PVR Categories at Week 12: <100 mL,[5]; [8],96.6%
same,PVR Categories at Week 12: ≥100 mL to <200 mL,[5]; [8],0%
same,PVR Categories at Week 12: ≥200 mL to <350 mL,[5]; [8],3.4%
same,PVR Categories at Week 12: ≥350 mL,[5]; [8],0%
same,PVR Mean Change from Baseline at Week 12 (SD),[5]; [8],−3.4 (42.45) mL
same,PVR Mean Change from Baseline at Week 12 (SD),[5]; [9],2.2 (48.45) mL
same,PVR category <100 mL at Week 12,[5]; [9],89.7%
same,PVR category ≥100 mL to <200 mL at Week 12,[5]; [9],7.7%
same,PVR category ≥200 mL to <350 mL at Week 12,[5]; [9],2.6%
same,PVR category ≥350 mL at Week 12,[5]; [9],0
same,PVR Categories at Week 12: <100 mL,[5]; study population as a whole,89.9%
same,PVR Categories at Week 12: ≥100 mL to <200 mL,[5]; study population as a whole,3.5%
same,PVR Categories at Week 12: ≥200 mL to <350 mL,[5]; study population as a whole,0.6%
same,PVR Categories at Week 12: ≥350 mL,[5]; study population as a whole,0%
same,PVR Mean Change from Baseline at Week 12 (SD),[5]; study population as a whole,0.4 (38.27) mL
